The values that follow come from EP4772500A1, “NOVEL ISOXAZOLE COMPOUND AS TM4SF5-SPECIFIC INHIBITOR AND USE THEREOF” (Seoul National University R&DB Foundation, priority 2023, dated 2025).

Assay type in all cases: cell-based, human
Assay [1] concerns SNU761-TM4SF5. The assay is described as follows: Western blotting of SLAMF7 expression, TM4SF5-expressing SNU761 cells. To be noted: chloroquine 10 µM, 24 hours (FIG. 15d). The protocol:
Cell extracts were obtained from cells grown to a density of 70-80% without any treatment, or from cells treated with vehicle DMSO or drugs at the given concentrations for 24 hours. For the extract of hepatocytes or liver cancer cells, a lysis buffer (150 mM NaCl, 1% NP-40, 50 mM Tris-HCl, 0.25% sodium deoxycholate, pH 7.4) including a protease inhibitor cocktail (GenDEPOT) was used. In addition, after washing animal liver tissue twice with PBS, SDS, Na3VO4, and protease inhibitor cocktails (GenDEPOT) were added to a lysis buffer [50 mM Tris-HCl, pH 7.4, 1% NP40, 0.25% sodium deoxycholate, 150 mM NaCl, 1 mM EDTA (based on 500 ml)], followed by treatment at 4°C for 15 minutes. After centrifugation at 13,000 rpm at 4°C for 30 minutes, only the supernatant was transferred to a new microcentrifuge tube. After quantification using BCA reagent (Thermo Scientific), a 4 × sample buffer [100% glycerol 4 ml, Tris-HCl, pH 6.8, 2.4 ml, SDS 0.8 g, Bromophenol blue 4 mg, betamercaptoethanol 0.4 ml, H2O 3.1 ml (based on 10 ml)] was added, followed by boiling at 100°C for 5 minutes. After performing SDS-PAGE electrophoresis with the above samples and transferring them to Nitrocellulose Membranes Protran™ nitrocellulose membranes (Whatman), pre-treatment was performed with 5% skim milk for 1 hour. After pre-treatment, primary antibodies of p-FAK(Y861) (SC-16663), p-FAK(Y577) (SC-16665), c-Src (SC-8056), STAT3 (SC-8019), p-AKT 1/2/3(S473) (SC-7985), STATS (SC-835), Laminin γ2 (SC-393225), COL1A1 (SC-28657), CCL5(RANTES) (SC-514019) CCL20(MIP-3α) (SC-517441), SIRT1 (SC-74465), ChREBP (SC-515922), SREBP1 (SC-366513), DGAT1 (SC-271934), DGAT2 (SC-293211), MICA/B (SC-137242), SLAMF7 (SC-390840), α-tublin (SC-5286), β-actin (SC-47778), FUCA (SC-365496) (the above from Santa Cruz Biotech, USA), p-FAK(Y397) (cat # 611723), FAK (cat # 610088), p27 (cat # 610242) (the above from BD Transduction, USA), p-FAK(Y925) (#3284) p-c-Src(Y416) (#2101), p-STAT3(Y705) (#9145), p70S6K1 (#9202), p-p70S6K1(T389) (#9205), p-STAT5(Y694) (#9314), ACC (#3676), FASN (#3189), CPT1A (#12252), p-ACC(S79) (#11818), HA (#3724), PD-L1 (#13684), PD-1 (#86163), p-ERK1/2(T202/Y204) (#9101s), ERK1/2 (#9102s) (the above from Cell Signaling Tech., USA), pS10p27(S10) (ab62364), human SLAMF6 (ab224201), TIGIT (ab233404), CD34 (ab81289) (the above from Abcam, UK), mouse SLAMF6 (PA5-87823), NKG2D (PA5-102038) (the above from Thermofisher, USA), α-SMA (Sigma Aldrich, A5228), CCL2 (Invitrogen, MA5-17040), and CD155(PVR) (Biolegend, 337601), HA (Biolegend, USA), Strep-HRP(horse-radish peroxidase), StrepMAB-HRP (IBA, USA), AFP (FineTest, FNab00203) were reacted at 4°C for 15 hours. The next day, secondary antibodies were reacted, and development was performed on X-ray film using ECL (Pierce, USA). […]
After 24 hours, vehicle DMSO, drug ST-1-025, or ST-5-002 was treated at the given concentrations. […] (f) After treating NK92-EV or NK92-TM4SF5 cells with DMSO or drugs ST-2-001 (1 nM), ST-3-005 (10 nM or 1 µM), ST-5-001, or ST-5-002 (100 nM or 1 µM) for 24 hours, the expression of SLAMF7 expressed on the cell surface was analyzed through immunostaining using flow cytometry. The expression level of SLAMF7 was confirmed by adding a SLAMF7 antibody to bind with SLAMF7 and then measuring the fluorescence linked to the SLAMF7 antibody using flow cytometry. […]
A general note: A western blot detects proteins with antibodies after separation by electrophoresis.

The subject of assay [2] is TM4SF5-non-expressing cells (SNU449Cp). The assay is described as follows: Western blotting for signaling factor phosphorylation in TM4SF5-non-expressing cells. To be noted: 5 µM, 24 hours (FIG. 9a-b, blue-lined boxes). The protocol:
(§1) Cell extracts were obtained from cells grown to a density of 70-80% without any treatment, or from cells treated with vehicle DMSO or drugs at the given concentrations for 24 hours. For the extract of hepatocytes or liver cancer cells, a lysis buffer (150 mM NaCl, 1% NP-40, 50 mM Tris-HCl, 0.25% sodium deoxycholate, pH 7.4) including a protease inhibitor cocktail (GenDEPOT) was used. In addition, after washing animal liver tissue twice with PBS, SDS, Na3VO4, and protease inhibitor cocktails (GenDEPOT) were added to a lysis buffer [50 mM Tris-HCl, pH 7.4, 1% NP40, 0.25% sodium deoxycholate, 150 mM NaCl, 1 mM EDTA (based on 500 ml)], followed by treatment at 4°C for 15 minutes. After centrifugation at 13,000 rpm at 4°C for 30 minutes, only the supernatant was transferred to a new microcentrifuge tube. After quantification using BCA reagent (Thermo Scientific), a 4 × sample buffer [100% glycerol 4 ml, Tris-HCl, pH 6.8, 2.4 ml, SDS 0.8 g, Bromophenol blue 4 mg, betamercaptoethanol 0.4 ml, H2O 3.1 ml (based on 10 ml)] was added, followed by boiling at 100°C for 5 minutes. After performing SDS-PAGE electrophoresis with the above samples and transferring them to Nitrocellulose Membranes Protran™ nitrocellulose membranes (Whatman), pre-treatment was performed with 5% skim milk for 1 hour. After pre-treatment, primary antibodies of p-FAK(Y861) (SC-16663), p-FAK(Y577) (SC-16665), c-Src (SC-8056), STAT3 (SC-8019), p-AKT 1/2/3(S473) (SC-7985), STATS (SC-835), Laminin γ2 (SC-393225), COL1A1 (SC-28657), CCL5(RANTES) (SC-514019) CCL20(MIP-3α) (SC-517441), SIRT1 (SC-74465), ChREBP (SC-515922), SREBP1 (SC-366513), DGAT1 (SC-271934), DGAT2 (SC-293211), MICA/B (SC-137242), SLAMF7 (SC-390840), α-tublin (SC-5286), β-actin (SC-47778), FUCA (SC-365496) (the above from Santa Cruz Biotech, USA), p-FAK(Y397) (cat # 611723), FAK (cat # 610088), p27 (cat # 610242) (the above from BD Transduction, USA), p-FAK(Y925) (#3284) p-c-Src(Y416) (#2101), p-STAT3(Y705) (#9145), p70S6K1 (#9202), p-p70S6K1(T389) (#9205), p-STAT5(Y694) (#9314), ACC (#3676), FASN (#3189), CPT1A (#12252), p-ACC(S79) (#11818), HA (#3724), PD-L1 (#13684), PD-1 (#86163), p-ERK1/2(T202/Y204) (#9101s), ERK1/2 (#9102s) (the above from Cell Signaling Tech., USA), pS10p27(S10) (ab62364), human SLAMF6 (ab224201), TIGIT (ab233404), CD34 (ab81289) (the above from Abcam, UK), mouse SLAMF6 (PA5-87823), NKG2D (PA5-102038) (the above from Thermofisher, USA), α-SMA (Sigma Aldrich, A5228), CCL2 (Invitrogen, MA5-17040), and CD155(PVR) (Biolegend, 337601), HA (Biolegend, USA), Strep-HRP(horse-radish peroxidase), StrepMAB-HRP (IBA, USA), AFP (FineTest, FNab00203) were reacted at 4°C for 15 hours. The next day, secondary antibodies were reacted, and development was performed on X-ray film using ECL (Pierce, USA). Anti-TM4SF5C-ter (epitope region of RKKQDTPH^197) and anti-TM4SF5EC2 (CLMNGEWGYHFEDTAGA^130) were custom-made at a professional antibody production company (Pro-Sci, Poway, CA, USA).
(a) Cell extracts were obtained after treating TM4SF5-non-expressing cells (SNU449Cp) and TM4SF5-expressing cells (SNU449T7) with vehicle (DMSO), ST-2-001, or an ST-2-001-based derivative drug at a concentration of 5 µM for 24 hours. (b) Cell extracts were obtained after treating SNU449Cp and SNU449T7 with DMSO, ST-2-001, ST-3-001, ST-3-006, ST-3-007, ST-3-010, or ST-3-011 at a concentration of 5 µM for 24 hours. (c) Cell extracts were obtained after treating SNU449Cp and SNU449T7 with DMSO, ST-2-001, ST-3-006, or ST-3-011 at the given concentrations for 24 hours. (a-c) Using the cell extracts obtained after the drug treatment, Western blotting was performed for signaling factors whose phosphorylation and activity increase in a TM4SF5-expression dependent manner.

The test system of assay [3] is TM4SF5-expressing cells (SNU449T7). The assay is described as follows: Western blotting for signaling factors whose phosphorylation increases in a TM4SF5-expression dependent manner. To be noted: for phosphorylation of FAK, c-Src, STAT3, p27, S6K1, AKT, and STAT5: 5 µM, 24 hours (FIG. 9a-b); for phosphorylation of FAK, STAT3, c-Src, S6K1, Akt, and p27: given concentrations. The protocol:
as §1
Cell extracts were obtained before and after treating TM4SF5-non-expressing cells (SNU449Cp) and TM4SF5-expressing cells (SNU449T7) with ST-1-024 or ST-1-025 drugs at the given concentrations for 24 hours, and Western blotting was performed for signaling factors whose phosphorylation and activity increase in a TM4SF5-expression dependent manner.
(a) Cell extracts were obtained after treating TM4SF5-non-expressing cells (SNU449Cp) and TM4SF5-expressing cells (SNU449T7) with vehicle (DMSO), TSAHC, or isoxazole compounds ST-2-001, ST-2-002, ST-2-003, ST-2-004, ST-2-005, ST-2-006, ST-2-007, ST-2-008, ST-2-009, ST-2-010, or ST-2-011 at a dose of 5 µM (for 24 hours). Using these, Western blotting was performed for signaling factors whose phosphorylation and activity increase in a TM4SF5-expression dependent manner. […]

Assay [4] shares this test system. Kind of assay: 3D sphere growth/proliferation. The protocol:
TM4SF5-non-expressing cells (SNU449Cp) and TM4SF5-expressing cells (SNU449T7) of the same number (200 cells/well or 1000 cells/well) were added per well into Costar Ultra-Low Attachment Multiple Well Plates (CORNING), and were then treated with vehicle (DMSO) or drugs at various concentrations and cultured in a cell incubator under conditions of 37°C and 5% CO2. After repeatedly treating with the same concentrations of drugs every few days at regular intervals as indicated from the date of cell culture, the proliferation of the cells (spheres) was observed and photographed using an optical microscope on the last day of observation.
The drugs treated were the positive control drug TSAHC or the ST-1-025 isoxazole compound at the given concentrations. From the time of starting culture (0 day), (FIG. 3a) in the case of 2D culture, the number of cells was measured after treating with the drug every 24 hours, or (FIG. 3b) in a 3D environment, the proliferation of cells (spheres) was observed and photographed with an optical microscope on the 5th and 7th days after a single drug treatment at the start of culture. […]

Where [5] appears, read: 0.5 or 2.5 µM, observed 6th or 10th day (FIG. 10a, b).

Consider `CCN(CC)CCCC(C)Nc1ccnc2cc(Cl)ccc12` (stereo not drawn) [CQ, chloroquine, reference compound], for which the “reduction in SLAMF7 expression” value in assay [1] was “not clearly seen”.
On to `CC(=O)Nc1ccc(-c2cc(-c3ccc(C(C)(C)C)cc3)on2)cc1` [ST-3-007, N-(4-(5-(4-(tert-butyl)phenyl)isoxazole-3-yl)phenyl)acetamide], for which the “phosphorylation of some signaling factors” value in assay [2] is on record as “increased”. Also, the “phosphorylation of FAK, c-Src, STAT3, p27, S6K1, AKT, and STAT5” value in assay [3] was “decreased”. The “degree of three-dimensional cell proliferation” value in assay [4] (setting [5]) is listed as “inhibited”.
With `Cc1ccc(S(=O)(=O)Nc2ccc(-c3cc(-c4ccc(O)cc4)no3)cc2)cc1` [ST-4-005, N-(4-(3-(4-hydroxyphenyl)isoxazole-5-yl)phenyl)-4-methylbenzenesulfonamide], the “phosphorylation of FAK, STAT3, c-Src, S6K1, Akt, and p27” value was “inhibited in many cases including STAT3, S6K1, and FAK” in assay [3] (24 hours (FIG. 12a)); “inhibited” in assay [3] (24 hours (FIG. 12d)). Further, the “survival/proliferation of the spheres” value in assay [4] (given concentrations on the 0, 3, 6, and 9th days, observed 10th day (FIG. 12b-c)) is “inhibited”.
With `C=CC(=O)Nc1ccc(-c2cc(-c3ccc(OC)cc3)on2)cc1` [ST-3-010, N-(4-(5-(4-methoxyphenyl)isoxazole-3-yl)phenyl)acrylamide], the “phosphorylation of some signaling factors” value in assay [2] is on record as “increased”. Further, the “phosphorylation of FAK, c-Src, STAT3, p27, S6K1, AKT, and STAT5” value in assay [3] was “decreased”. In addition, the “degree of three-dimensional cell proliferation” value in assay [4] (0.1 or 1.0 µM, observed 10th day (FIG. 10c)) was “decreased”; in assay [4] (setting [5]), “inhibited”. Further, the “cell proliferation inhibitory effect” value in assay [4] (0.5 or 2.5 µM (FIG. 10a, b), comparison among drugs) was “strong”.
